What was measured:
[1] = system: U-2 OS cells; test: APB frequency and APB telomere intensity in cells overexpressing FANCM variants; assay type: cell-based, human; details: overexpression
Excerpt: (a) Western immunoblotting of stable wild-type FANCM (FANCM+) or FANCM mutant overexpression in U-2 OS cells. […] (b) TRF analysis of U-2 OS cells overexpressing wild-type (FANCM+) or FANCM mutants. Gels were hybridized under native and denatured conditions with radiolabelled telomeric probes to detect the C-strand and G-strand. (c) Tukey boxplots of APB frequency (top panel) and mean APB telomere intensity (bottom panel) in U-2 OS cells overexpressing wild-type (FANCM+) or FANCM mutants. Out of 3 experiments, n=150 cells scored per variant, *p<0.05, **p<0.005, Mann-Whitney test.
(§1) FIG. 23. Defects in ALT phenotype suppression are exacerbated by overexpression of a double-mutant (DM) FANCM, in which both the MM2 domain (FF>AA) and the translocase domain (K117R) of FANCM are mutated. (a) Representative dot blots and quantitation of C-circle assays in U-2 OS cells stably overexpressing wild-type (WT) or FANCM domain mutants (K117R, FF>AA; DM). C-circles were normalized to the mean of empty vector control (EV). Error bars represent mean±SEM from n=3 experiments, *p<0.05, **p<0.005, Student's t-test. (b) Quantitation of APB frequency in U-2 OS cells overexpressing wild-type (WT) or FANCM mutants. Scatterplot bars represent the mean±SEM. Out of three experiments, n=150 cells were scored for each mutant, **p<0.005, Mann-Whitney test. (c) Quantitation of metaphase-TIFs in U-2 OS cells stably overexpressing wild-type (WT) or FANCM mutants. Scatterplot bars represent the mean±SEM. Out of three experiments, n=120 metaphases scored for each mutant, *p<0.05, **p<0.005, Mann-Whitney test. All statistical comparisons are relative to EV control.
(§2) Empty vector and wild-type FANCM (pCMV6-Myc-DDK) constructs were obtained from Origene Technologies. Wild type FANCM (SEQ ID NO: 2) and FANCM mutants (SEQ ID NOs: 19 to 28) were cloned into the pLenti-C-Myc-DDK-IRES-Neo backbone (Origene Technologies) by restriction enzyme subcloning of gene blocks synthesized by Integrated DNA Technologies (IDT). Lentivirus was produced by the Vector and Genome Engineering Facility (Children's Medical Research Institute). For stable overexpression, cells were transduced with lentivirus, allowed to recover for 24 h, and subject to G418 selection. Cells were maintained in G418 to ensure sustained overexpression.
Indirect IF and telomere FISH were performed on both interphase nuclei and metaphase spreads. For interphase IF experiments, cells were grown on coverslips or LabTek chamber slides (Thermo Scientific). Slides were prepared as described in Sobinoff et al., 2017. Cells on coverslips were washed twice with PBS, permeabilized with KCM buffer (120 mM KCl, 20 mM NaCl, 10 mM Tris pH 7.5, 0.1% Triton), washed again with PBST and PBS, then fixed with ice-cold 4% formaldehyde PBS solution at room temperature for 10 min. Coverslips were blocked with antibody-dilution buffer (20 mM Tris-HCl, pH 7.5, 2% (w/v) BSA, 0.2% (v/v) fish gelatin, 150 mM NaCl, 0.1% (v/v) Triton X-100 and 0.1% (w/v) sodium azide) and 0.1 mg/ml RNaseA for 30 min at 37° C. Cells were incubated with primary antibodies (Supplementary Table 1) for 1 h at 37° C. or 2 h at room temperature, then incubated with 1:1,000 dilution of appropriate Alexa Fluor conjugated secondary antibodies (Thermo Scientific). Coverslips were rinsed with PBS then fixed with 4% (v/v) formaldehyde at room temperature prior to telomere FISH. Coverslips were subjected to a graded ethanol series (75% for 2 min, 85% for 2 min, and 100% for 2 min) and allowed to air-dry. […]

[2] = system: U-2 OS cells; test: Metaphase-TIFs in cells overexpressing FANCM variants; assay type: cell-based, human; details: stable overexpression
Excerpt: (a) Schematic of FANCM domain interactions, mutations or deletions. For clarity, domains have been color coded by functional role (bottom panel). (b) Quantitation of metaphase-TIFs in U-2 OS cells stably overexpressing wild-type (FANCM+) or FANCM mutants. Scatterplot bars represent the mean±SEM. Out of 3 experiments, n≥110 metaphases scored for each mutant, *p<0.05, **p<0.005, Mann-Whitney test. (c) Quantitation of fragile telomeres in U-2 OS cells stably overexpressing wild-type (FANCM+) or FANCM mutants. Scatterplot bars represent the mean±SEM. Out of 3 experiments, n>100 metaphases scored for each mutant, *p<0.05, **p<0.005, Mann-Whitney test. (d) Representative dot blots and quantitation of C-circle assays in U-2 OS cells stably overexpressing wild-type (FANCM+) or FANCM domain mutants. C-circles were normalized to the mean of vector control. Error bars represent mean±SEM from n=3 experiments, *p<0.05, **p<0.005, Student's t-test. (e) Single molecule analysis of telomeric extension events (top panel) and length of extension events (bottom panel) in U-2 OS cells stably overexpressing wild-type (FANCM+) or FANCM domain mutants. Error bars represent mean±SEM of n≥350 fibers out of 3 experiments, *p<0.05, **p<0.005, Student's t-test.
as §1, §2
Indirect IF and telomere FISH were performed on both interphase nuclei and metaphase spreads. For interphase IF experiments, cells were grown on coverslips or LabTek chamber slides (Thermo Scientific). Slides were prepared as described in Sobinoff et al., 2017. Cells on coverslips were washed twice with PBS, permeabilized with KCM buffer (120 mM KCl, 20 mM NaCl, 10 mM Tris pH 7.5, 0.1% Triton), washed again with PBST and PBS, then fixed with ice-cold 4% formaldehyde PBS solution at room temperature for 10 min. […]

Substance | intensity of telomeric signal within APBs [1] | number of APBs [1] | telomere dysfunction (metaphase-TIFs) [2]
FF>AA: FANCM mutant (SEQ ID NO: 25), double substitution F1232A/F1236A within the MM2 domain | significant increase | significant increase | significantly increased
K117R: FANCM mutant (SEQ ID NO: 20) substituted at K117R, DEAH domain disrupted | significant increase | significant increase | failed to suppress the phenotypes
